Among the data in patent publication US20260132132A1, “3A,4,5,6-TETRAHYDRO-1 H-PYRAZOLO[3,4-C]PYRIDIN-7(7AH)-ONE DERIVATIVES AS FACTOR XIIA INHIBITORS” (KALVISTA PHARMACEUTICALS LIMITED, priority 2022, published 2026) are IC50 values, retold here.

Structures are written as SMILES. Some results are limits rather than exact numbers.

Assay [1] concerns the target T1, Human Factor XIIa (hFXIIa) (Homo sapiens, UniProt P00748).
T1 construct: purchased Enzyme Research Laboratories
T1 sequence (P00748 373-615 limits assumed): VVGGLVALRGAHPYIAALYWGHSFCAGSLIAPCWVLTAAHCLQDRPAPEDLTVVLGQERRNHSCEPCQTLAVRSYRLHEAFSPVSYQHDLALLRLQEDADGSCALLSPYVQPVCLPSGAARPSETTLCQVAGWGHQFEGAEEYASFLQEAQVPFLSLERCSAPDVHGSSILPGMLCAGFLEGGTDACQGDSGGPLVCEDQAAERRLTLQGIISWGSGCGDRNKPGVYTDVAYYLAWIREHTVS
T1 sequence (P00748 20-372 partner limits assumed): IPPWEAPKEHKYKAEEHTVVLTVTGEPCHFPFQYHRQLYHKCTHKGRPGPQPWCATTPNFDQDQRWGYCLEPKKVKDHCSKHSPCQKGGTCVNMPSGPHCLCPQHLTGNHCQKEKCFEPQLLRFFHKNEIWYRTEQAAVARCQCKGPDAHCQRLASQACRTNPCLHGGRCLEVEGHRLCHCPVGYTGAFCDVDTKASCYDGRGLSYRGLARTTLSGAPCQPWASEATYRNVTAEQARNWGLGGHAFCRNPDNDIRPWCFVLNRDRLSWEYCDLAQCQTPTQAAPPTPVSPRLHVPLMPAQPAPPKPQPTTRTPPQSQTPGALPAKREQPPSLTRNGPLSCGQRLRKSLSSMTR
Kind of assay: Determination of Human Factor XIIa (hFXIIa) inhibition, fluorogenic substrate IC50 assay. Format: biochemical. Particulars: fluorogenic substrate H-DPro-Phe-Arg-AFC at Km, 25° C., read-out: Human FXIIa IC50. How it is done:
Determination of Human Factor XIIa (hFXIIa) inhibition
The Km for the cleavage of the substrate by hFXIIa was determined by standard transformation of the Michaelis-Menten equation, with subsequent inhibition assays performed at substrate Km concentration.

Another assay has as its target FXa (Homo sapiens, UniProt P00742). As to the kind of experiment: Related protease inhibition: FXa, fluorogenic substrate. The format is biochemical. The settings on record: fluorogenic substrate at Km, 25° C.; H1-H3 = % activity at 40 μM. How it is done: Human serine protease enzyme Plasma Kallikrein, KLK1, FXa, Plasmin, Thrombin and Trypsin were assayed for enzymatic activity using an appropriate fluorogenic substrate at Km concentration, FXIa at fixed substrate concentration of 100 μM and various concentrations of the test compound.

Sequence of FXa (P00742 235-488 limits assumed): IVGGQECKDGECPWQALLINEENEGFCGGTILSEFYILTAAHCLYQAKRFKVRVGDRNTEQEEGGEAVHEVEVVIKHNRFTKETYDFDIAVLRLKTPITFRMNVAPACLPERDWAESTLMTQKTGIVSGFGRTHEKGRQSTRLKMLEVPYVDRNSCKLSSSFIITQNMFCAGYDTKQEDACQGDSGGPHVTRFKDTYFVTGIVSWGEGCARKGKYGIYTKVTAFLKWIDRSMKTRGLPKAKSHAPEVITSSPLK
Sequence of FXa (P00742 41-179 partner limits assumed): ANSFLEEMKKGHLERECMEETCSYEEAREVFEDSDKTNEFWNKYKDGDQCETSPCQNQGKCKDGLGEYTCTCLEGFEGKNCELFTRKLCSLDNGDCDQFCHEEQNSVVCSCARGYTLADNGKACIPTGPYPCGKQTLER

As for `CCNC(=O)c1nn(-c2cccc(C)c2F)c2c1CCN(c1ccc3c(c1)C(=O)N(C)CC3)C2=O` [Example 2032, N-ethyl-1-(2-fluoro-3-methylphenyl)-6-(2-methyl-1-oxo-1,2,3,4-tetrahydroisoquinolin-7-yl)-7-oxo-4,5,6,7-tetrahydro-1H-pyrazolo[3,4-c]pyridine-3-carboxamide], the IC50 is 0.3 to 1 µM in assay [1] and above 40 µM on FXa.

Consider `Cc1ncccc1CNC(=O)c1nn(-c2cccc(Cl)c2)c2c1CCN(c1ccc3c(c1)CN(CCO)CC3)C2=O` [Example 1111, 1-(3-chlorophenyl)-6-(2-(2-hydroxyethyl)-1,2,3,4-tetrahydroisoquinolin-7-yl)-N-((2-methylpyridin-3-yl)methyl)-7-oxo-4,5,6,7-tetrahydro-1H-pyrazolo[3,4-c]pyridine-3-carboxamide], for which the IC50 in assay [1] was in the range of 0.01 to 0.1 µM; at FXa it was 10 to 40 µM.

On to `Cc1cnnc(CNC(=O)c2nn(-c3cccc(Cl)c3)c3c2CCN(c2ccc4c(c2)C(=O)N(C)CC4)C3=O)c1` [Example 1282, 1-(3-chlorophenyl)-6-(2-methyl-1-oxo-1,2,3,4-tetrahydroisoquinolin-7-yl)-N-((5-methylpyridazin-3-yl)methyl)-7-oxo-4,5,6,7-tetrahydro-1H-pyrazolo[3,4-c]pyridine-3-carboxamide], for which the IC50 in assay [1] is 0.3 to 1 µM; against FXa, above 40 µM.

Take `CO[C@H]1CCOC[C@H]1NC(=O)c1nn(-c2cccc(Cl)c2)c2c1CCN(c1ccc3c(c1)C(=O)N(C)CC3)C2=O` [Example 1265, 1-(3-chlorophenyl)-N-((3R,4S)-4-methoxytetrahydro-2H-pyran-3-yl)-6-(2-methyl-1-oxo-1,2,3,4-tetrahydroisoquinolin-7-yl)-7-oxo-4,5,6,7-tetrahydro-1H-pyrazolo[3,4-c]pyridine-3-carboxamide]: the IC50 in assay [1] was 0.3 to 1 µM; at FXa it was above 40 µM.

With `Cc1nc2c(C(=O)NCC3CC3)nn(-c3cccc(Cl)c3)c2c(=O)n1-c1ccc2c(c1)CN(C)CC2` [Example 3004, 1-(3-chlorophenyl)-N-(cyclopropylmethyl)-5-methyl-6-(2-methyl-1,2,3,4-tetrahydroisoquinolin-7-yl)-7-oxo-6,7-dihydro-1H-pyrazolo[4,3-d]pyrimidine-3-carboxamide], the IC50 fell in the range of 0.1 to 0.3 µM in assay [1] and 3 to 10 µM on FXa.

Take `Cc1cc(CNC(=O)c2nn(-c3cccc(Cl)c3)c3c2CCN(c2ccc4c(c2)C(=O)N(C)C4)C3=O)nn1C` [Example 1206, 1-(3-chlorophenyl)-N-((1,5-dimethyl-1H-pyrazol-3-yl)methyl)-6-(2-methyl-3-oxoisoindolin-5-yl)-7-oxo-4,5,6,7-tetrahydro-1H-pyrazolo[3,4-c]pyridine-3-carboxamide]: the IC50 is 1 to 3 µM in assay [1] and above 40 µM on FXa.

Turning to `CN1CCc2ccc(N3CCc4c(COCC(=O)O)nn(-c5cccc(Cl)c5)c4C3=O)cc2C1=O` [Example 1358, 2-((1-(3-chlorophenyl)-6-(2-methyl-1-oxo-1,2,3,4-tetrahydroisoquinolin-7-yl)-7-oxo-4,5,6,7-tetrahydro-1H-pyrazolo[3,4-c]pyridin-3-yl)methoxy)acetic acid], the IC50 in assay [1] was 1 to 3 µM; against FXa it was 3 to 10 µM.

`CN1CCc2ccc(N3CCc4c(CNS(C)(=O)=O)nn(-c5cccc(Cl)c5)c4C3=O)cc2C1=O` [Example 1403, N-((1-(3-chlorophenyl)-6-(2-methyl-1-oxo-1,2,3,4-tetrahydroisoquinolin-7-yl)-7-oxo-4,5,6,7-tetrahydro-1H-pyrazolo[3,4-c]pyridin-3-yl)methyl)methanesulfonamide]: the IC50 in assay [1] lay within 1 to 3 µM; at FXa it was 3 to 10 µM.

For the compound `CCN1CCc2cc(F)c(N3CCc4c(C(=O)NCC5CC5)nn(-c5cccc(Cl)c5)c4C3=O)cc2C1` [Example 1079, 1-(3-chlorophenyl)-N-(cyclopropylmethyl)-6-(2-ethyl-6-fluoro-1,2,3,4-tetrahydroisoquinolin-7-yl)-7-oxo-4,5,6,7-tetrahydro-1H-pyrazolo[3,4-c]pyridine-3-carboxamide], the IC50 in assay [1] was in the range of 0.01 to 0.1 µM; against FXa it was 10 to 40 µM.

With `CCNC(=O)c1nn(-c2cccc(Cl)c2)c2c1CCN(c1cccc(N3CCCN(C)C3=O)c1)C2=O` [Example 1390, 1-(3-chlorophenyl)-N-ethyl-6-(3-(3-methyl-2-oxotetrahydropyrimidin-1(2H)-yl)phenyl)-7-oxo-4,5,6,7-tetrahydro-1H-pyrazolo[3,4-c]pyridine-3-carboxamide], the IC50 is 1 to 3 µM in assay [1] and above 40 µM at FXa.

Regarding `CN1CCc2ccc(N3CCc4c(C(=O)NC5(C)CC5)nn(-c5cccc(Cl)c5)c4C3=O)cc2C1=O` [Example 1359, 1-(3-chlorophenyl)-6-(2-methyl-1-oxo-1,2,3,4-tetrahydroisoquinolin-7-yl)-N-(1-methylcyclopropyl)-7-oxo-4,5,6,7-tetrahydro-1H-pyrazolo[3,4-c]pyridine-3-carboxamide], the IC50 in assay [1] is 0.3 to 1 µM; against FXa it was above 40 µM.

Turning to `CN1CCc2ccc(N3CCc4c(C(=O)NCC5CCOC5)nn(-c5cccc(Cl)c5)c4C3=O)cc2C1=O` (centres unmarked) [Example 1198, 1-(3-chlorophenyl)-6-(2-methyl-1-oxo-1,2,3,4-tetrahydroisoquinolin-7-yl)-7-oxo-N-((tetrahydrofuran-3-yl)methyl)-4,5,6,7-tetrahydro-1H-pyrazolo[3,4-c]pyridine-3-carboxamide], the IC50 in assay [1] is 0.3 to 1 µM; on FXa, above 40 µM.

Take `CN1CCc2ccc(N3CCc4c(C(=O)N5CCCO5)nn(-c5cccc(Cl)c5)c4C3=O)cc2C1=O` [Example 1343, 7-(1-(3-chlorophenyl)-3-(isoxazolidine-2-carbonyl)-7-oxo-1,4,5,7-tetrahydro-6H-pyrazolo[3,4-c]pyridin-6-yl)-2-methyl-3,4-dihydroisoquinolin-1(2H)-one]: the IC50 was 1 to 3 µM in assay [1] and 10 to 40 µM at FXa.

`O=C(NCC1CC1(F)F)c1nn(-c2cccc(Cl)c2)c2c1CCN(c1ccc3c(c1)CN(CCO)CC3)C2=O` (centres unmarked) [Example 1142, 1-(3-chlorophenyl)-N-((2,2-difluorocyclopropyl)methyl)-6-(2-(2-hydroxyethyl)-1,2,3,4-tetrahydroisoquinolin-7-yl)-7-oxo-4,5,6,7-tetrahydro-1H-pyrazolo[3,4-c]pyridine-3-carboxamide]: the IC50 in assay [1] is 0.1 to 0.3 µM; at FXa, above 40 µM.

Take `CCNC(=O)c1nn(-c2cccc(Cl)c2)c2c1CCN(c1cccc(N3CC4CC4C3=O)c1)C2=O` (centres unmarked) [Example 1368, 1-(3-chlorophenyl)-N-ethyl-7-oxo-6-(3-(2-oxo-3-azabicyclo[3.1.0]hexan-3-yl)phenyl)-4,5,6,7-tetrahydro-1H-pyrazolo[3,4-c]pyridine-3-carboxamide]: the values for the IC50 (in assay [1]; on FXa) were 1 to 3 µM and above 40 µM, respectively.

In the case of `Cc1ccncc1C(C)NC(=O)c1nn(-c2cccc(Cl)c2)c2c1CCN(c1ccc3c(c1)C(=O)N(CCO)CC3)C2=O` (centres unmarked) [Example 1327, 1-(3-chlorophenyl)-6-(2-(2-hydroxyethyl)-1-oxo-1,2,3,4-tetrahydroisoquinolin-7-yl)-N-(1-(4-methylpyridin-3-yl)ethyl)-7-oxo-4,5,6,7-tetrahydro-1H-pyrazolo[3,4-c]pyridine-3-carboxamide], the IC50 in assay [1] is 0.1 to 0.3 µM; against FXa, above 40 µM.

In the case of `Cc1ccc(CNC(=O)c2nn(-c3cccc(Cl)c3)c3c2CCN(c2ccc4c(c2)CN(CCO)CC4)C3=O)cn1` [Example 1147, 1-(3-chlorophenyl)-6-(2-(2-hydroxyethyl)-1,2,3,4-tetrahydroisoquinolin-7-yl)-N-((6-methylpyridin-3-yl)methyl)-7-oxo-4,5,6,7-tetrahydro-1H-pyrazolo[3,4-c]pyridine-3-carboxamide], the IC50 in assay [1] lay in the range of 0.01 to 0.1 µM; against FXa it was 10 to 40 µM.

As for `CCNC(=O)c1nn(-c2cc(Cl)ccc2F)c2c1CCN(c1ccc3c(c1)C(=O)N(C)CC3)C2=O` [Example 2030, 1-(5-chloro-2-fluorophenyl)-N-ethyl-6-(2-methyl-1-oxo-1,2,3,4-tetrahydroisoquinolin-7-yl)-7-oxo-4,5,6,7-tetrahydro-1H-pyrazolo[3,4-c]pyridine-3-carboxamide], the IC50 in assay [1] fell in the range of 3 to 10 µM; against FXa, 10 to 40 µM.

Consider `CCNC(=O)c1nn(-c2cccc(Cl)c2)c2c1CCN(c1ccc(OC)c(N3C(=O)CC4CC43)c1)C2=O` (centres unmarked) [Example 1402, 1-(3-chlorophenyl)-N-ethyl-6-(4-methoxy-3-(3-oxo-2-azabicyclo[3.1.0]hexan-2-yl)phenyl)-7-oxo-4,5,6,7-tetrahydro-1H-pyrazolo[3,4-c]pyridine-3-carboxamide], for which the IC50 in assay [1] is 3 to 10 µM; against FXa it was above 40 µM.
